Results: patent publication US11058113B1, “Fly and pupa insecticide” (Fly's Water, LLC, priority 2018, dated 2021)

Assays:
Format in all cases: in vivo
[1] = system: Musca domestica Linnaeus adult houseflies; assay: Needle inoculum (direct application) on adult flies
Experimental: (§1) The Solution may be poured into a container having a spray nozzle or provided in an aerosol container. Alternatively, the Solution may be poured into an open container for direct contact. The Solution may be poured directly onto pupa or sprayed. Several experiments were performed on Musca domestica Linnaeus adult houseflies, pupa, and larva using varying dilutions, concentrations, and combinations of components, along with a dihydrogen monoxide control to compare the effectiveness and potency of each composition for quickly killing adult flies, pupa, and larva. […] During experimentation, a needle inoculum (syringe) having a modified composition for adult flies, a spray inoculum having the modified composition for adult flies, and a dihydrogen monoxide control for adult flies were conducted. References to “needle inoculum” refers to directly applying the modified composition to the adult flies.

[2] = system: Musca domestica Linnaeus house fly; assay: Fly killing, general statements (application not specified); details: for independent house fly adulticidal properties of the individual component: individual formula component
Text: The concentrations, formulas, and composition noted herein have been evaluated and tested for optimal effect against adult houseflies and pupa. Altering the preferred concentrations would decrease the effectiveness of the inventive Solution, leading to longer a time period before the flies and/or pupa are killed. The Solution may be poured into a container having a spray nozzle or provided in an aerosol container. Alternatively, the Solution may be poured into an open container for direct contact. The Solution may be poured directly onto pupa or sprayed. Several experiments were performed on Musca domestica Linnaeus adult houseflies, pupa, and larva using varying dilutions, concentrations, and combinations of components, along with a dihydrogen monoxide control to compare the effectiveness and potency of each composition for quickly killing adult flies, pupa, and larva. […] These minimal moments of delay between contact and expiration prevents the fly from falling and immediately dying in an undesired location, for example, on a food surface. […] The user can either wait for the fly to die solely from the spray, or, alternatively, the user can implement using the spray as one of the first steps for disabling the fly before immediately killing the fly with either more application of the sprayable composition or with another aid, for example, a fly swatter.
The invention, when sprayed on fly pupa, prevents the pupa from hatching. The preferred type of fly and fly pupa that are effectively killed by this Solution are Musca domestica Linnaeus houseflies. Because the composition (or Solution) is nontoxic, nonabrasive, and ingestible for humans, the Solution can be sprayed or applied directly to a surface, including food. Various experiments were conducted to evaluate the efficacy of each component used in the Solution.

[3] = system: Musca domestica Linnaeus adult houseflies; assay: Spray inoculum on adult flies; details: 75° F.
Experimental: as §1

[4] = FIG. 30, 50% dilution, same temperature (75° F.)
[5] = FIG. 30, needle inoculum as printed, 0% dilution of 10 mg/mL, 75° F.
[6] = 50% dilution with water, time in E36/E37
[7] = printed 50% dilution, in the figure of the 75% dilution experiment
[8] = needle inoculum, 0% (no) dilution, 75° F., time in E2/E3
[9] = needle inoculum, 50% dilution with water, 75° F.
[10] = needle inoculum, 50% dilution with water, 75° F., time in E5/E6
[11] = needle inoculum, 75% dilution with water, 75° F.
[12] = needle inoculum, 90% dilution with water, 75° F.
[13] = 90% dilution with water, 30 minutes
[14] = needle inoculum, 75% dilution with water, 75° F., 30 minutes
[15] = needle inoculum, 90% dilution with water, 75° F., 30 minutes
[16] = needle inoculum, no (0%) dilution, 75° F.

**Q.** Which results are given for `CCCCC(CC)COC(=O)CC(C(=O)OCC(CC)CCCC)S(=O)(=O)[O-].[Na+]` (centres unmarked) [dioctyl sodium sulfosuccinate]?
**A.** deaths of adult flies [1, 4]: 10 out of 10; time within which the deaths occurred [1, 4]: ≤ 46 s; deaths of adult flies ([1]; FIG. 30, 90% dilution): 10 out of 10; time within which the deaths occurred ([1]; FIG. 30, 90% dilution): ≤ 188 s; deaths of adult flies [1, 5]: 10 out of 10; time within which the deaths occurred [1, 5]: ≤ 36 s; time within which flies are immobilized and collapse ([2]; flies): 30 to 60 s

**Q.** How did the “time within which the deaths occurred” value ([3]; 50% dilution with water) turn out when `CCCCC(CC)COC(=O)CC(C(=O)OCC(CC)CCCC)S(=O)(=O)[O-].[Na+]` (centres unmarked) [docusate, docusate sodium] was run?
**A.** ≤ 43 s

**Q.** What about the “deaths of adult flies” value [3, 6] of the same compound?
**A.** 10 out of 10

**Q.** What about the “time within which the deaths occurred” value ([3]; 90% dilution with water) of the same compound?
**A.** ≤ 143 s

**Q.** And the “deaths of adult flies” value ([3]; 90% dilution with water, time in E42/E43)?
**A.** 10 out of 10

**Q.** What about the “deaths of adult flies” value ([3]; 95% dilution with water, time in E45) of the same compound?
**A.** 10 out of 10

**Q.** And the “deaths of adult flies” value ([3]; 99% dilution with water, time in E47)?
**A.** 10 out of 10

**Q.** And the “time within which the deaths occurred” value ([3]; no dilution)?
**A.** ≤ 68 s

**Q.** And the “deaths of adult flies” value ([3]; no dilution, time in E33/E34)?
**A.** 10 out of 10

**Q.** And the “time within which the deaths occurred” value [3, 7]?
**A.** ≤ 89 s

**Q.** And the “deaths of adult flies” value ([3]; printed 50% dilution, in the figure of the 75% dilution experiment, time in E39/E40)?
**A.** 10 out of 10

**Q.** What about the “deaths of adult flies” value [1, 8] of the same compound?
**A.** 10 out of 10

**Q.** What about the “time within which the deaths occurred” value ([1]; needle inoculum, 0% dilution, 75° F.) of the same compound?
**A.** ≤ 48 s

**Q.** And the “time within which the deaths occurred” value [1, 9]?
**A.** ≤ 56 s

**Q.** What about the “deaths of adult flies” value [1, 10] of the same compound?
**A.** 10 out of 10

**Q.** And the “time within which the deaths occurred” value [1, 11]?
**A.** ≤ 126 s

**Q.** What about the “deaths of adult flies” value ([1]; needle inoculum, 75% dilution with water, 75° F., time in E8/E9) of the same compound?
**A.** 10 out of 10

**Q.** And the “time within which the deaths occurred” value [1, 12]?
**A.** ≤ 121 s

**Q.** What about the “deaths of adult flies” value ([1]; needle inoculum, 90% dilution with water, 75° F., time in E11) of the same compound?
**A.** 10 out of 10

**Q.** What about the “deaths of adult flies” value ([1]; needle inoculum, 95% dilution with water, 75° F., time in E13) of the same compound?
**A.** 10 out of 10

**Q.** And the “deaths of adult flies” value ([1]; needle inoculum, 99% dilution with water, 75° F., time in E15)?
**A.** 10 out of 10

**Q.** And the “independent house fly adulticidal properties of the individual component” value [2]?
**A.** exhibit varying house fly adulticidal properties

**Q.** For `CCO` [ethyl alcohol], which “deaths of adult flies” value [3, 6] is on record?
**A.** 10 out of 10

**Q.** What about the “flight ability during the observation time” value ([3]; 75% dilution with water, 30 minutes) of the same compound?
**A.** incapable of flight

**Q.** What about the “deaths of adult flies within 30 minutes” value ([3]; 75% dilution with water) of the same compound?
**A.** 4 out of 10

**Q.** What about the “flight ability during the observation time” value [3, 13] of the same compound?
**A.** incapable of flight

**Q.** And the “deaths of adult flies within 30 minutes” value ([3]; 90% dilution with water)?
**A.** 1 out of 10

**Q.** What about the “flight ability during the observation time” value ([3]; no dilution) of the same compound?
**A.** incapable of flight

**Q.** And the “deaths of adult flies” value ([3]; no dilution, time in E33/E34)?
**A.** 10 out of 10

**Q.** What about the “deaths of adult flies” value [1, 8] of the same compound?
**A.** 10 out of 10

**Q.** And the “flight ability during the observation time” value [1, 9]?
**A.** incapable of flight

**Q.** What about the “deaths of adult flies” value [1, 10] of the same compound?
**A.** 10 out of 10

**Q.** What about the “flight ability during the observation time” value [1, 14] of the same compound?
**A.** incapable of flight

**Q.** And the “deaths of adult flies within 30 minutes” value [1, 11]?
**A.** 1 out of 10

**Q.** And the “flight ability during the observation time” value [1, 15]?
**A.** incapable of flight

**Q.** And the “deaths of adult flies within 30 minutes” value [1, 12]?
**A.** 0 out of 10

**Q.** Which results are given for `OCC(O)CO` [glycerin]?
**A.** flight ability during the observation time ([3]; 50% dilution, 30 minutes): incapable of flight; deaths of adult flies within 30 minutes ([3]; 50% dilution): 6 out of 10; flight ability during the observation time [3, 13]: incapable of flight; deaths of adult flies within 30 minutes ([3]; 90% dilution with water): 7 out of 10; flight ability during the observation time ([3]; no dilution): incapable of flight; deaths of adult flies within 30 minutes ([3]; no dilution): 0 out of 10; flight ability during the observation time ([3]; printed 50% dilution, in the figure of the 75% dilution experiment, 30 minutes): incapable of flight; deaths of adult flies within 30 minutes [3, 7]: 6 out of 10; flight ability during the observation time [1, 9]: incapable of flight; deaths of adult flies within 30 minutes [1, 9]: 5 out of 10; flight ability during the observation time [1, 14]: incapable of flight; deaths of adult flies within 30 minutes [1, 11]: 4 out of 10; flight ability during the observation time [1, 15]: incapable of flight; deaths of adult flies within 30 minutes [1, 12]: 2 out of 10; flight ability during the observation time [1, 16]: incapable of flight; deaths of adult flies within 30 minutes [1, 16]: 0 out of 10; independent house fly adulticidal properties of the individual component [2]: exhibit varying house fly adulticidal properties
